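Cells were grown in 96-well plates and exposed to each compound for 48 hours at five concentrations; endpoints were interpolated linearly between bracketing concentrations, or set to the highest concentration if not reached. At the GI50, growth is halved.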 Active and inactive are the calls of the source. Rule as the data show it: active = GI50 up to about 1.1 µM and inactive = higher.
How the values were obtained:
Assay in all cases: NCI tumour cell line growth inhibition, 48 h
A498 = tested on: A498
ACHN = tested on: ACHN
BT-549 = tested on: BT-549
COLO 205 = tested on: COLO 205
HCC 2998 = tested on: HCC 2998
HCT-116 = tested on: HCT-116
KM12 = tested on: KM12
MDA-N = tested on: MDA-N
Malme-3M = tested on: Malme-3M
NCI-H23 = tested on: NCI-H23
OVCAR-5 = tested on: OVCAR-5
OVCAR-8 = tested on: OVCAR-8
RPMI-8226 = tested on: RPMI-8226
SF-295 = tested on: SF-295
SF-539 = tested on: SF-539
SK-MEL-28 = tested on: SK-MEL-28
TK-10 = tested on: TK-10
UACC-62 = tested on: UACC-62
CCRF-CEM = tested on: CCRF-CEM

Measured: GI50

O=C1CSC2(CCN(CCCN3c4ccccc4Sc4ccc(Cl)cc43)CC2)N1
inactive: A498 15.5 µM | ACHN 11.6 µM | BT-549 12.1 µM | COLO 205 10 µM | HCC 2998 3.99 µM | HCT-116 6.14 µM | KM12 6.65 µM | MDA-N 11.5 µM | Malme-3M 12 µM | NCI-H23 9.46 µM | OVCAR-5 11.9 µM | OVCAR-8 11.3 µM | RPMI-8226 6.05 µM | SF-295 10.3 µM | SF-539 13.1 µM | SK-MEL-28 15 µM | TK-10 9.4 µM | UACC-62 11.5 µM

Cc1cccc(-c2cccc(COCc3cccc(-c4cccc(CO)n4)n3)n2)n1
inactive: A498 > 50 µM | ACHN > 50 µM | BT-549 19.3 µM | COLO 205 4.11 µM | HCC 2998 > 50 µM | HCT-116 > 50 µM | KM12 > 50 µM | MDA-N > 50 µM | OVCAR-5 > 50 µM | OVCAR-8 16.2 µM | RPMI-8226 33.3 µM | SF-295 > 5 µM | SF-539 > 50 µM | SK-MEL-28 > 50 µM | TK-10 32.5 µM | UACC-62 > 50 µM

O=[N+]([O-])c1ccc2c(c1)N=C1OC(c3c[nH]c4ccc(COc5ccccc5)cc34)C(O)=C1N2 (centres undefined)
inactive: A498 > 100 µM | ACHN > 100 µM | BT-549 > 100 µM | COLO 205 23.2 µM | HCC 2998 21.2 µM | HCT-116 72.8 µM | KM12 > 100 µM | MDA-N > 100 µM | Malme-3M > 100 µM | NCI-H23 > 100 µM | OVCAR-5 > 100 µM | OVCAR-8 > 100 µM | RPMI-8226 > 100 µM | SF-295 47.6 µM | SF-539 > 100 µM | SK-MEL-28 > 100 µM | TK-10 59.2 µM | UACC-62 52 µM

Nc1ccccc1C(=O)CC1OC(=O)c2ccccc21 (centres undefined)
inactive: A498 43.2 µM | ACHN > 100 µM | BT-549 35 µM | HCT-116 51.6 µM | KM12 33.4 µM | MDA-N 78.7 µM | Malme-3M 50.5 µM | OVCAR-5 > 100 µM | OVCAR-8 51.5 µM | RPMI-8226 38.1 µM | SF-295 > 100 µM | SF-539 36 µM | SK-MEL-28 > 100 µM | TK-10 > 100 µM | UACC-62 64.9 µM

COc1ccc(N2CC(=O)N(C(=O)COc3ccc(OCC(=O)N4C(=O)CN(c5ccc(OC)cc5)C4=S)cc3)C2=S)cc1
inactive: A498 > 100 µM | ACHN > 100 µM | BT-549 > 100 µM | COLO 205 > 100 µM | HCC 2998 > 100 µM | HCT-116 24 µM | KM12 39.1 µM | MDA-N > 100 µM | Malme-3M 4.47 µM | NCI-H23 88.1 µM | OVCAR-5 > 100 µM | RPMI-8226 87.5 µM | SF-295 > 100 µM | SK-MEL-28 > 100 µM | TK-10 > 100 µM | UACC-62 70.8 µM

O=c1[nH]c2cc([N+](=O)[O-])c(N(CCO)CCO)c([N+](=O)[O-])c2[nH]1
inactive: A498 22.2 µM | ACHN 43.7 µM | BT-549 18.5 µM | CCRF-CEM 44.7 µM | COLO 205 20 µM | HCT-116 27.7 µM | KM12 22.6 µM | MDA-N 33.7 µM | Malme-3M 61.2 µM | NCI-H23 30.5 µM | OVCAR-5 31.9 µM | OVCAR-8 31.3 µM | RPMI-8226 26.7 µM | SF-295 28.4 µM | SF-539 23.8 µM | SK-MEL-28 29.4 µM | UACC-62 24.1 µM

COc1cc2c(cc1OCCCCOc1cc3c(cc1OC)C(=O)N1CCC[C@H]1C(=O)N3)N=C[C@@H]1CCCN1C2=O
inactive: A498 6.71 µM | ACHN 14.7 µM | BT-549 4.44 µM | COLO 205 2.55 µM | HCC 2998 11.7 µM | HCT-116 16.8 µM | KM12 5.02 µM | MDA-N 7.28 µM | Malme-3M 9.79 µM | NCI-H23 12.8 µM | OVCAR-5 13.1 µM | OVCAR-8 14.7 µM | RPMI-8226 1.57 µM | SF-295 12.5 µM | SK-MEL-28 14.3 µM | TK-10 12.9 µM | UACC-62 3.35 µM

C(/C=N/N=C1NCCCN1)=N\N=C1NCCCN1
inactive: ACHN > 100 µM | BT-549 > 100 µM | CCRF-CEM > 100 µM | COLO 205 > 100 µM | HCC 2998 > 100 µM | HCT-116 > 100 µM | KM12 > 100 µM | MDA-N > 100 µM | Malme-3M > 100 µM | NCI-H23 > 100 µM | OVCAR-5 > 100 µM | OVCAR-8 > 100 µM | SF-295 > 10 µM | SF-539 > 100 µM | SK-MEL-28 > 100 µM | TK-10 > 10 µM | UACC-62 > 100 µM

From ChEMBL document CHEMBL1201862, “PubChem BioAssay data set” (2004)
